Results as given in US12358921B2, “Antiviral heterocyclic compounds” (priority 2022, dated 2025).

Key:
Format in all cases: cell-based
[1] = tested on: HUMAN RSV-A (“LONG” STRAIN); test: RSV-A assay (CPE, ATPlite) in Hep-2 cells; conditions: human respiratory syncytial virus, 120 h, MOI 0.1, 5-day incubation
How it was run: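 Protection from RSV cytopathic effect read by ATP luminescence (ATPlite) after 5-day culture. Genotype A "Long" virus added at MOI 0.1 to Hep-2 monolayers at 8,000 cells/well, pre-dosed with duplicate 2-fold compound dilutions; controls include infected untreated and uninfected wells. EC50 values binned into ranges.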

hMPV A2 TN/94-49 [2] = test: HMPV antiviral assay Method 1 (LLC-MK2 cells, ATP-Lite); conditions: hMPV A2 TN/94-49, LLC-MK2 cells
How it was run: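 LLC-MK2 cells infected in suspension with hMPV A2 TN/94-49 at MOI 0.005, 5,000 cells/well, in serum-free OptiMEM with 2 μg/mL TPCK-trypsin (final) and CaCl2; compounds in duplicate, 10 points, 2 μM top, 2.5-fold dilutions. After 7 days at 37 °C, cell health by ATP-Lite luminescence; EC50 by four-parameter fit.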

hMPV A2 TN/94-49 [3] = test: HMPV antiviral assay Method 2 (LLC-MK2 cells with CP-100-356, ATP-Lite); conditions: hMPV A2 TN/94-49, LLC-MK2 cells, 4 μM CP-100-356, Method 2
How it was run: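 The protective effect was measured after 7 days at 37 °C by ATP-Lite luminescence and expressed as % cell health relative to virus-only and cells-only wells, with EC50 from a four-parameter logistic. Cells were LLC-MK2 infected with strain A2 TN/94-49 (MOI 0.16) with final 2 μM CP-100-356 and 2 μg/mL TPCK-trypsin; 10 duplicate concentrations from 200 nM, 2.5-fold steps.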

Row | SMILES | EC50 [1] [nM] | EC50 (hMPV A2 TN/94-49 [2]) [nM] | EC50 (hMPV A2 TN/94-49 [3]) [nM]
1 | C[C@]1(C(N)=O)COc2c1cc([C@@](O)(CNC(=O)c1cc(OC3CC3)c3nc(C4CC4)sc3c1)C1CC1)nc2-c1cc(Cl)c(F)cc1F [Example 3] | < 200 | < 500 | < 200
2 | C[C@]1(C(N)=O)COc2c1cc([C@@](O)(CNC(=O)c1cc(OC3CC3)n3nc(C4CC4)cc3c1)C1CC1)nc2-c1cc(Cl)c(F)cc1F [Example 4] | < 200 | < 500 | < 200
3 | C[C@]1(C(N)=O)COc2c1cc([C@@](O)(CNC(=O)c1cc(OC3CC3)c3nn(C4(F)CC4)cc3c1)C1CC1)nc2-c1cc(Cl)c(F)cc1F [Example 5] | < 200 | < 500 | < 200
4 | COc1cc(C(=O)NC[C@@](O)(c2ccc(F)cc2)c2cc3c(c(-c4cc(Cl)c(F)cc4F)n2)OC[C@]3(C)C(N)=O)cc2cn(C3CC3)nc12 [Example 12] | < 200 | < 500 | < 200
5 | COc1cc(C(=O)NC[C@@](O)(c2ccc(F)cc2)c2cc3c(c(-c4cc(Cl)c(F)cc4F)n2)OC[C@]3(C)C(N)=O)cc2cn(C3(F)CC3)nc12 [Example 14] | < 200 | < 500 | < 200
6 | COc1cc(C(=O)NC[C@@](O)(c2ccccc2)c2cc3c(c(-c4ccc5c(c4)OC(F)(F)O5)n2)OC[C@]3(C)C(N)=O)cc2cn(C3CC3)nc12 [Example 18] | < 200 | < 500 | < 200
7 | COc1cc(C(=O)NC[C@@](O)(c2ccccc2)c2cc3c(c(-c4ccc5c(c4)OC(F)(F)O5)n2)OC[C@]3(C)C(N)=O)cc2cn(C3(F)CC3)nc12 [Example 19] | < 200 | < 500 | < 200
8 | COc1cc(C(=O)NC[C@](O)(c2cc3c(c(-c4cc(F)c(F)cc4F)n2)OC[C@]3(C)C(N)=O)C2CC2)cc2cc(C)c(F)nc12 [Example 21] | < 200 | < 500 | < 200
9 | COc1cc(C(=O)NC[C@](O)(c2cc3c(c(-c4ccc5c(c4)OC(F)(F)O5)n2)OC[C@]3(C)C(N)=O)C2CC2)cc2cc(C)c(F)nc12 [Example 22] | < 200 | < 500 | < 200
10 | C[C@]1(C(N)=O)COc2c1cc([C@@](O)(CNC(=O)c1cc(OC3CC3)c3nn(C4CC4)cc3c1)C1CC1)nc2-c1ccc(F)c(Cl)c1Cl [Example 23] | < 200 | < 500 | < 200
11 | COc1cc(C(=O)NC[C@](O)(c2cc3c(c(-c4cc(F)c(F)cc4F)n2)OC[C@]3(C)C(N)=O)C2CC(F)(F)C2)cc2cn(C(F)F)nc12 [Example 33] | < 200 | > 500 | < 200
12 | C[C@]1(C(N)=O)COc2c1cc([C@@](O)(CNC(=O)c1cc(OC3CC3)c3nn(C(F)F)cc3c1)C1CC(F)(F)C1)nc2-c1cc(F)c(F)cc1F [Example 34] | < 200 | < 500 | < 200
13 | C[C@]1(C(N)=O)COc2c1cc([C@@](O)(CNC(=O)c1cc(OCCO)c3nn(C4CC4)cc3c1)C1CC1)nc2-c1ccc(F)c(Cl)c1F [Example 37] | < 200 | > 500 | < 200
14 | C[C@@H](O)COc1cc(C(=O)NC[C@](O)(c2cc3c(c(-c4ccc(F)c(Cl)c4F)n2)OC[C@]3(C)C(N)=O)C2CC2)cc2cn(C3CC3)nc12 [Example 38] | < 200 | > 500 | < 200
15 | COc1cc(C(=O)NC[C@@](O)(c2ccc(F)cc2)c2cc3c(c(-c4ccc(F)c(Cl)c4Cl)n2)OC[C@]3(C)C(N)=O)cc2cn(C3CC3)nc12 [Example 41] | < 200 | < 500 | < 200
16 | COc1cc(C(=O)NC[C@@](O)(c2ccc(F)cc2)c2cc3c(c(-c4ccc(F)c(Cl)c4Cl)n2)OC[C@]3(C)C(N)=O)cc2cn(C3(F)CC3)nc12 [Example 43] | < 200 | < 500 | < 200
17 | COc1cc(C(=O)NC[C@](O)(c2cc3c(c(-c4cc(F)c(F)cc4C)n2)OC[C@]3(C)C(N)=O)C2CC2)cc2cn(C3CC3)nc12 [Example 50] | < 200 | > 500 | < 200
18 | COc1cc(C(=O)NC[C@](O)(c2cc3c(c(-c4ccc(F)c(Cl)c4Cl)n2)OC[C@]3(C)C(N)=O)C(F)(F)F)cc2cn(C3CC3)nc12 [Example 65] | < 200 | < 500 | < 200
19 | COc1cc(C(=O)NC[C@](O)(c2cc3c(c(-c4ccc(F)c(Cl)c4Cl)n2)OC[C@]3(C)C(N)=O)C(F)(F)F)cc2cn(C(F)F)nc12 [Example 66] | < 200 | < 500 | < 200
